Measurements reported in patent US4562275A, “Antitumor platinum complexes” (priority 1984, dated 1985).
Several values for one entry are separate records, joined by “and”; a condition that tells them apart may be missing. Equal entries are not always repeated.

Experiments:
[1] = tested on: L1210 leukemia; assay: Antitumor activity vs transplantable L1210 leukemia (ip) in mice; format: in vivo, mouse; conditions: for Max % T/C: dying mice only; for OD (optimum dose): optimum dose from the L1210 test
Text: The antitumor activities of the complexes provided by the present invention have been determined against L-1210 leukemia in the mouse and, for certain of the complexes, against other mouse tumor systems.
(§1) Results of antitumor testing against the transplantable mouse tumors L1210 leukemia, cisplatin-resistant L1210 leukemia, B16 melanoma, Madison 109 lung carcinoma and colon 26 carcinoma are shown below in Tables 1 and 2.
In Table 1 are shown the maximum % T/C values obtained for each platinum compound versus L1210 leukemia using both single and qd 1→5 dosing.
(§2) The methods used to evaluate the platinum complexes for antitumor activity and toxicity in animals are summarized below. These methods have been published elsewhere in more detail (Rose, et al. Cancer Treat. Rep. 66: 135, 1982; Florczyk, et al, Cancer Treat. Rep. 66: 187, 1982).
(§3) The parent line of L1210 leukemia (L1210) was maintained in DBA/2 mice by ip transplantation of 10^5 cells at weekly intervals. […] B16 malenoma (B16) was maintained by sc transplant in C57BL/6 mice every two weeks. Madison 109 lung carcinoma (M109) and colon 26 carcinoma (C26) were maintained by sc transplant in BALB/c mice every two weeks.
(§4) The level and route of tumor inoculum, host, group size, and drug treatment schedule and route for each tumor type are summarized below in Table 6. Each complex was evaluated initially against L1210 at 4 dose levels per schedule selected on the basis of lethality data provided by the Wadley Institute. In subsequent experiments with the other tumors the complexes were evaluated at a minimum of 3 dose levels selected on the basis of maximum tolerated levels in the L1210 experiments. Cisplatin-treated groups and a saline-treated (or untreated) tumor control group were included in each experiment.
(§5) The L1210 experiments were terminated on Day 30 whereas the B16, C26 and M109 experiments were terminated on Day 60 (some C26 experiments were terminated on Day 75). Mice alive at the termination day were autopsied and considered cured if no tumor was visible. […] A complex was considered active if it produced a % T/C value ≥125.

[2] = tested on: L1210/CDDP (cisplatin resistant line of L1210 leukemia); assay: Antitumor activity vs cisplatin-resistant L1210 leukemia (L1210/CDDP) in mice; format: in vivo, mouse
Text: Results of antitumor testing against the transplantable mouse tumors L1210 leukemia, cisplatin-resistant L1210 leukemia, B16 melanoma, Madison 109 lung carcinoma and colon 26 carcinoma are shown below in Tables 1 and 2. […]
as §2, §3, §4, §5

[3] = tested on: B16 melanoma; assay: Antitumor activity vs ip B16 melanoma in mice; format: in vivo, mouse; design: O.D.: unit not given here; conditions: for O.D.: ip B16 (3×; 9×); for Max. % T/C: ip B16 (3×; 9×): q4d × 3 or qd 1-9, ip, dying mice only
Text: as §2, §3
The level and route of tumor inoculum, host, group size, and drug treatment schedule and route for each tumor type are summarized below in Table 6. Each complex was evaluated initially against L1210 at 4 dose levels per schedule selected on the basis of lethality data provided by the Wadley Institute.
as §5

[4] = tested on: M109 carcinoma; assay: Antitumor activity vs ip M109 (Madison 109 lung) carcinoma in mice; format: in vivo, mouse; design: O.D.: unit not given here
Text: as §1, §2, §3, §4, §5
8 q3d^a × 2 or qd 1-4, ip

[5] = tested on: BDF1 mice; assay: Single-dose ip LD50 in BDF1 mice; format: in vivo, mouse; conditions: 30 days observation
Description: Single-dose ip LD50 values were determined in BDF1 mice for the indicated complexes.

[6] = tested on: BDF1 mice; assay: Nephrotoxicity: effect on blood urea nitrogen (BUN) in BDF1 mice; conditions: for BUN↑, Mouse: effect relative to cisplatin
Description: The other compounds were in such short supply that they were tested for effects on BUN values using the optimum dose (O.D.) from the L1210 test for dose selection.
The toxicity studies were done in male BDF1 mice (25-29 gm) and castrated male Fitch ferrets (1-1.5 kg).
The complexes that were active against L1210 were evaluated for nephrotoxicity by determining their effects on blood urea nitrogen (BUN) levels in mice. Groups of 40-50 mice/experiment were bled from the retro-orbital plexus and individual BUN values determined by a modified urease method using a Centrifichem System 400. The test complex, or saline for controls, was given at several dose levels (5-10 mice/dose) in single ip injections. The highest dose of the complex usually corresponded to its LD50 value or 1.5 times its optimal single dose in the L1210 experiment. At least two lower doses were included to evaluate dose-related effects. The BUN values were measured 4 and 7 days after dosing. BUN values ≥30 mg% were considered indicative of drug-induced nephrotoxicity.

[7] = tested on: BDF1 mice; assay: Deaths (D.14) in the BUN test in BDF1 mice; format: in vivo, mouse
[8] = tested on: ferret; assay: Emetic effects (and lethality) in the ferret; format: in vivo, castrated male Fitch ferrets
Description: Selected complexes were evaluated for emetic effects in ferrets. […] The time to the first emetic episode (retching and expulsion of vomitus) and the number of episodes were recorded. […] Subsequent test doses were selected based on the emetic response and lethality of the initial dose.

[9] = L1210, single dose Day 1, ip, (a), (b) determinations
[10] = L1210, single dose Day 1, ip, dose giving the Max % T/C, same order
[11] = L1210, Day 1, in intralipid plus ethanol
[12] = Day 1, in intralipid plus ethanol

Structure (SMILES) | O.D. (optimal dose) ([1]; L1210, QD 1 → 5, ip) [mg/kg/inj] | Max % T/C ([1]; L1210, QD 1 → 5, ip) [%] | Max % T/C [1, 9] | O.D. (optimal dose) [1, 10] | OD (optimum dose) [1] [mg/kg/ip] | O.D. (optimal dose) ([2]; Day 1) [mg/kg/inj] | Max % T/C ([2]; Day 1, dying mice only) [%] | O.D. [3] | Max. % T/C [3] [%] | LD50 [5] [mg/kg/ip] | Incidence of BUN > 30 mg % ([6]; 17 mg/kg ip) | BUN↑, Mouse [6] | Deaths D.14 ([7]; 17 mg/kg ip) | other results
CCC(=O)C(=O)[O-].CCC(=O)C(=O)[O-].N[C@@H]1CCCC[C@H]1N.[Pt+2] (relative stereo) [Example 5, bis(2-ketobutyrato)trans(-)-1,2-diaminocyclohexane platinum(II)] | 2.5 | 193 | 186% and 200% | 10 mg/kg/inj and 9 mg/kg/inj | 10 | 9 | 144 | 4 | 163 | 30 | 0/10 | 0 | 1/10 | Cures/total ([2]; Day 1): 2/6; O.D. ([4]; ip M109 (2×; 4×)): 6; Max. % T/C ([4]; ip M109 (2×; 4×): q3d × 2 or qd 1-4, ip, dying mice only): 131%; Incidence of BUN > 30 mg % ([6]; 22.5 mg/kg ip): 0/10; Incidence of BUN > 30 mg % ([6]; 30 mg/kg ip): 1/9; Deaths D.14 ([7]; 22.5 mg/kg ip): 1/10; Deaths D.14 ([7]; 30 mg/kg ip): 3/10
N[C@@H]1CCCC[C@H]1N.[O]=[Mn](=[O])([O-])[O-].[Pt+2] [Example 8, manganato trans(-)-1,2-diaminocyclohexane platinum(II)] | 2.5 | 293 | 214% and 186% | 20 mg/kg/inj and 18 mg/kg/inj | 20 | 8 | 181 | 2 | 160 | 31 | 0/9 | 0 | 1/10 | Incidence of BUN > 30 mg % ([6]; 23 mg/kg ip): 0/7; Incidence of BUN > 30 mg % ([6]; 31 mg/kg ip): 0/8; Emesis Episodes ([8]; 16 mg/kg iv): 15; Emesis onset in responding animals ([8]; 16 mg/kg iv): 16 min; No. With Emesis/No. tested ([8]; 16 mg/kg iv, 6 h observation): 1/1; acute lethality ([8]; ferret, 16 mg/kg iv): 44 min; Lethal dose ([8]; ferret, doses marked * = Lethal dose): 16 mg/kg iv; Deaths D.14 ([7]; 23 mg/kg ip): 3/10; Deaths D.14 ([7]; 31 mg/kg ip): 2/10
CCCCB([O-])[O-].N[C@@H]1CCCC[C@H]1N.[Pt+2] (relative stereo) [Example 7, n-butylboronato trans(-)-1,2-diaminocyclohexane platinum(II)] | 1 |  | 179% | 3 mg/kg/inj | 3.6 |  |  | 1.2 | 120 | 11.3 |  | 0 |  | O.D. (optimal dose) [1, 11]: 6 mg/kg/inj; Max % T/C [1, 11]: 236% and 217%; Cures/total [2, 12]: 5/6; O.D. (optimal dose) [2, 12]: 8 mg/kg/inj; Max % T/C ([2]; Day 1, in intralipid plus ethanol, dying mice only): 427%; Incidence of BUN > 30 mg % ([6]; 6.4 mg/kg ip): 0/10; Incidence of BUN > 30 mg % ([6]; 8.5 mg/kg ip): 0/10; Incidence of BUN > 30 mg % ([6]; 11.3 mg/kg ip): 0/10; Deaths D.14 ([7]; 6.4 mg/kg ip): 0/10; Deaths D.14 ([7]; 8.5 mg/kg ip): 0/10; Deaths D.14 ([7]; 11.3 mg/kg ip): 0/10
